Experimental findings from US8901118B2, “Compounds and methods for kinase modulation, and indications therefor” (Plexxikon Inc., priority 2010, dated 2014) are described below.

Molecules are shown by their SMILES.

The assay deals with BCR-FMS BaF3 cells. The assay is described as follows: Splenomegaly mouse model, BCR-FMS BaF3 cells. It counts as in vivo. The settings on record: dosed once per day at 10 mg per kg. The procedure, abridged:
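Female nu/nu mice given 5×10^6 engineered BaF3 cells i.v. on day 1; compound in 1.0% Polysorbate 80/0.5% HPMC/2.5% DMSO dosed orally once (sometimes twice) daily, days 10-18. Spleens weighed 4 h after final dose; % spleen growth inhibition calculated versus vehicle control.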

`O=C(c1cnc(NC2CCC(F)(F)CC2)c(F)c1)c1c[nH]c2ncnc(NC3CC3)c12` [Compound P-4053, [4-(cyclopropylamino)-7H-pyrrolo[2,3-d]pyrimidin-5-yl]-[6-[(4,4-difluorocyclohexyl)amino]-5-fluoro-3-pyridyl]methanone]: the “% spleen growth inhibition, Fms” value was 69%.
